“Also recorded” adds a separate entry of the source.
Assays:
Type in all cases: cell-based, human
[1] = tested on: NK cells; test: [Cr51]-release assay: lysis of tumour target cells by pre-treated NK cells after H2O2 exposure
From the text: Peripheral blood samples (anonymized by-products of blood donations from healthy adult donors) were purchased from Karolinska University Hospital Blood Bank. Peripheral blood mononuclear cells (PBMC) were isolated from healthy donor buffy coats using density centrifugation with Ficoll® Paque Plus (GE Healthcare). NK cells and CD14^+ monocytes were isolated from PBMCs using NK cell isolation kit or CD14^+ microbeads, respectively (both Miltenyi Biotec), following the manufacturer's instructions. For NK cell expansion, a EBV-LCL feeder cell line was used, irradiated at 100 gy and then co-cultured with NK cells, at the ratio 10:1 LCL:NK, in X-Vivo 20 (Lonza) supplemented with 10% human AB serum and 1000 U/mL IL-2 (Proleukin). From day 6 or 10, NK cells were kept at 0.5×10^6 cells/mL or 1×10^6/mL, respectively. Purity of expanded NK cell was assessed at day 10 by flow cytometry, see below.
Lymphocytes were pre-treated for 18 h with Auranofin (AUF, with the concentration 1 μg/mL for NK cells and 0.5 μg/mL for TIL, if not indicated differently), DL-Sulforaphane (SUL) or Dimethyl Fumarate (DMF) (all Sigma-Aldrich) at indicated concentrations.
For Nrf2 inhibition, NK cells were treated with 50 μM ML-385 (Sigma-Aldrich) in parallel. For H2O2 treatment, lymphocyte cells were washed and resuspended to 1×10^6 cells/mL in medium and exposed to indicated H2O2 (Sigma-Aldrich) concentration for 1 h at 37° C. Cells were washed with medium and then used for further experiments. For monocyte experiments, autologous NK cell-monocytes or TIL-monocytes were used. NK cells/TIL were isolated and pre-treated with 0.5 μg/mL AUF, as described above, and co-cultured with unstimulated at the ratio, 1:2 M:NK, or stimulated monocytes at the ratio, 1:1 M:NK, if not indicated otherwise. Stimulated monocytes were activated with 100 ng/ml PMA for 1 min, washed and added at indicated ratio, the number of NK cell/TIL was kept constant. As control, H2O2 was used at indicated concentration. Cells were co-cultured for 2 h and then effector cells were stained for intracellular ROS (see flow cytometry) or used as effector cells in Cr^51 release assay (E:T ratio 10:1).
(§1) For cytotoxic assay, a standard 4 h [Cr^51]-release assay was used. Briefly, tumour cells were harvested and labeled with 51Cr (PerkinElmer) and used as target cells. Effector cells, NK cells and T cells, were co-cultured in 96-well V-bottom plate with indicated tumour cells at the stated effector target ratio (E:T). The supernatant was collected onto LUMA plates (Perkin-Elmer) and radioactivity/tumour cell lysis was detected by MicroBeta2 (Perkin Elmer). Target cell killing measured by % specific lysis and calculated using the formula: ((experimental release-spontaneous release)/(maximum release-spontaneous release))*100.
Lymphocytes were pre-treated for 18 h with Auranofin (AUF, with the concentration 1 μg/mL for NK cells and 0.5 μg/mL for TIL. As AUF was reconstituted in DMSO, control NK cells were pre-treated with DMSO with an equivalent volume to the highest compound concentration. For N-acetylcysteine (NAC, Invitrogen) treatment, DMSO pre-treated cells were incubated for 1 h with 5 or 10 mM NAC prior to H2O2 treatment. For H2O2 treatment, lymphocytes were washed and resuspended to 1×10^6 cells/mL in RPMI containing the indicated H2O2 (Sigma-Aldrich) concentration for 1 h at 37° C. 5% CO2. Cells were washed with medium and then used for further experiments.

[2] = tested on: tumour infiltrating lymphocytes (TIL); test: IFNγ release by pre-treated TIL on autologous tumour cells after H2O2 treatment; details: KADA and ANRU melanoma TIL, E:T 4:1, vs control group
Method: ., 2020). […] For Nrf2 inhibition, NK cells were treated with 50 μM ML-385 (Sigma-Aldrich) in parallel. […] Cells were washed with medium and then used for further experiments. For monocyte experiments, autologous NK cell-monocytes or TIL-monocytes were used. […] Stimulated monocytes were activated with 100 ng/ml PMA for 1 min, washed and added at indicated ratio, the number of NK cell/TIL was kept constant. […] For cytokine release assay, NK cells and TIL were cultured with indicated tumour cells at the effector target ratio 4:1 (E:T) for 24 h in U-bottom plates. IFNγ secretion was measured using human IFN-γ ELISA development kit (Mabtech) following the manufacturer's instructions.

[3] = tested on: NK cells; test: ADCC: NK cells with RAJI cells coated with Rituximab or Ofatumumab
Method: Lymphocytes were isolated and pre-treated when indicated, with compound and H2O2, as described above. For degranulation/measuring CD107a expression, NK cells were co-cultured with K562 tumour cells at an effector target ratio 1:1 in the presence of anti-CD107a in U-bottom plates. After 2 h, GolgiStop™ and GolgiPlug™ (BD Bioscience) were added and cells were harvested after an additional 4 h co-culture and stained for CD56 and CD3, as described above. For positive control, 25 ng/ml PMA (Sigma Aldrich) and 500 ng/mL Ionomycin (Sigma Aldrich) were added.
as §1
For analyzing ADCC, NK cells were cultured with RAJI cells and Rituximab (0.5 μg/mL, MabThera, Roche) or Ofatumumab (0.05 μg/mL, Arzerra, Novartis).

[4] = tested on: NK cells; test: Phenotype analysis of NK cell surface markers (flow cytometry)
Method: All antibodies (see Table 1) and FACS reagents were used according to manufactures recommendation, if not stated otherwise. All antibodies had been titrated for optimal signal-to-noise ratio and all staining's were performed in PBS supplemented with 1% FBS. All staining's contained a live/dead marker. Samples were fixed with 2% PFA (Thermo scientific) for 15 min before acquired on a NovoCyte (ACEA Biosciences) and analysed using FlowJo Software (TreeStar).
For evaluating CD16 expression, NK cells were treated as described above. After H2O2 treatment, NK cells were incubated for 2 h in RPMI 2% AB serum, stained with anti-CD3, anti-CD56 and anti-CD16 and analyzed.

[5] = upon addition of H2O2, vs control NK cells

CC(=O)OC[C@H]1O[C@@H]([S-])[C@H](OC(C)=O)[C@@H](OC(C)=O)[C@@H]1OC(C)=O.CCP(CC)CC.[Au+] [AUF, Auranofin]
Lysis of K562 target cells by pre-treated NK cells after H2O2 exposure ([1]; 18 h pre-treatment, H2O2 1 h up to 250 μM, E:T 9:1, vs control NK cells): counteracted; also recorded: strong protective effect against ROS | Effector functions of NK cells (K562 lysis) vs controls ([1]; 72 h after AUF removal, E:T 3:1): no differences | Killing of KASUMI-1 cells by pre-treated NK cells ([1]; AML cell line KASUMI-1, H2O2, E:T 9:1): significantly increased killing | Killing of THP-1 cells by pre-treated NK cells ([1]; AML cell line THP-1, H2O2, E:T 9:1): significantly increased killing | Time after start of pre-treatment with most pronounced protection of functional cytotoxicity capacity ([1]; NK cells, K562 lysis, H2O2, E:T 9:1): around 18 h | Lysis of K562 by AUF pre-treated NK cells despite addition of ML385 ([1]; compared to untreated controls): lysis was increased | Suppressive effect of H2O2 on lymphocyte function (killing, degranulation, IFNγ) ([1]; expanded NK cells and patient derived TIL, pre-treatment): counteracts the suppressive effect of H2O2 on lymphocyte function | Duration of improved NK cell and TIL tolerance towards oxidative stress ([1]; post pre-treatment): up to two to three days | Dependence of the protective effect on Nrf2 activation ([1]; qPCR of Nrf2 target genes and K562 lysis with/without Nrf2 inhibitor ML385): dependent on Nrf2 activation | Effector functions of NK cells (K562 lysis) ([1]; up to 48 h after AUF removal, E:T 3:1): significantly improved effector functions | Effector function of NK cells and TIL after H2O2 treatment ([1]; up to 72 h after compound removal): increased effector function | Recognition of autologous tumour cells by TIL (IFNγ production) upon exposure to H2O2 [2]: increased recognition of their autologous tumour cells | Ability of NK cells to degranulate in response to anti-CD20 coated RAJI cells [3, 5]: significant increase | Ability of NK cells to lyse anti-CD20 coated RAJI cells [3, 5]: significant increase | Capacity of NK cells to recognize anti-CD20 coated RAJI cells ([3]; without the presence of ROS): increased capacity to recognize the anti-CD20 coated RAJI cells | Differences in NK cell surface markers with and without AUF pre-treatment ([4]; DNAM-1, granzyme B, perforin, CD57, CD69, NKG2A, NKG2D, NKp40, NKp46): few differences | Frequency of NK cells expressing CD16 after exposure to H2O2 ([4]; untreated compared to AUF pre-treated NK cells): significant decrease in frequency of untreated NK cells expressing CD16 | NKp30 expression on NK cells ([4]; upon exposure to H2O2): increased expression | DNAM-1 and NKp46 on NK cells ([4]; with exposure to H2O2): reduced frequency of positive NK cells and/or reduced cell surface levels | DNAM-1, CD69 and NKG2D on NK cells ([4]; without exposure to H2O2): reduced frequency of positive NK cells and/or reduced cell surface levels

Reference: patent US20240277767A1, “METHODS AND USES” (PROLEUKOCYTE AB, priority 2021, published 2024)
